Laboratory results: patent US20240208972A1, “LRRK2 INHIBITORS AND USES THEREOF” (NEURON23, INC., priority 2022, published 2024)

Tests used:
Caco-2 cells = experiment: Caco-2 bidirectional permeability; assay type: in vitro ADME; conditions: for Caco-2 A2B (10^−6 cm/s): A to B; for Caco-2 A2B (10^−6 cm/s) / Caco-2 B2A (10^−6 cm/s): HBSS pH 7.4, 2 hours; for Caco-2 B2A (10^−6 cm/s): B to A; for Caco-2 ER: Efflux Ratio=Papp (BA)/Papp (AB)
Procedure: The compounds disclosed herein were tested in vitro on CaCo2 cell penetration according to the following procedures.
Test compounds were prepared in dimethyl sulfoxide (DMSO).
Caco-2 cells purchased from ATCC were seeded onto […] (PET) in 96-well Corning Insert plates at 1×10^5 cells/cm^2. The media were refreshed every 4 to 5 days until the 21st to 28th day for confluent cell monolayer formation.
Experiments were run in duplicate using a HBSS transport buffer containing 10 mM HEPES at pH 7.4. The test article TEST COMPOUND was tested bi-directionally at […] concentrations, the control compound digoxin was tested bi-directionally at 10 μM, and nadolol and metoprolol were tested at 2.0 μM in the A to B direction. Final DMSO concentrations were adjusted to less than 1%. The plates were incubated for 2 hours in a CO2 incubator at 37±1° C. with 5% CO2 at saturated humidity without shaking. Following incubation, samples were mixed with acetonitrile containing internal standard and centrifuged at 3200×g for 10 minutes. Then 200 μL of supernatant was taken from all samples. For TEST COMPOUND and digoxin, the supernatant was diluted with 200 μL of ultra-pure water and for nadolol and metoprolol, the supernatant was diluted with 600 μL of ultra-pure water. All samples were analyzed by LC-MS/MS. Concentrations of TEST COMPOUND and control compounds were determined in starting solutions, donor well solutions, and receiver well solutions using peak area ratios (PAR) of analyte to internal standard. After the transport assay, a lucifer yellow rejection assay was run to determine the Caco-2 cell monolayer integrity.
The apparent permeability (Papp), the % recovery and the efflux ratio were calculated as follows: • 1. Papp=(dCr/dt)×Vr/(A×C0) • 2. % Recovery=100×[(Vr×Cr)+(Vd×Cd)]/(Vd×C0) • 3. Efflux Ratio=Papp (BA)/Papp (AB) • Where: • dCr/dt is the slope of the cumulative concentration in the receiver compartment versus time (mM/s). • Vr and Vd is the volume in the receiver and donor compartments (0.075 mL on the apical side, 0.25 mL on the basolateral side), respectively. • A is the surface area of the cell monolayer (0.0804 cm^2). • C0 is the measured donor concentrations (μM) at the beginning of the experiment. • Cd and Cr are the final measured concentrations in the donor and receiver compartments, respectively.
The cell monolayer tight junction integrity assay was conducted after completion of the transport assay by adding Lucifer Yellow (LY) to the apical wells at 100 μM and incubating the cells for 30 minutes. Following incubation, tight junction integrity was assessed from LY concentrations in the basolateral compartment (receiver well) and the apical compartment (donor well) using fluorescence detection as follows: […]

[1] = biological target: T1, wt human LRRK2, catalytic site (Homo sapiens, UniProt Q5S007); experiment: TR-FRET LanthaScreen Tb Kinase Activity Assay, LRRK2 kinase inhibition; assay type: biochemical; conditions: 2 nM wt human LRRK2, 400 nM peptide, 38 μM ATP
T1 construct: wt human LRRK2, catalytic site, catalytic site (ThermoFisher/USA); purchased ThermoFisher
Procedure: The compounds disclosed herein were tested for their inhibitory effect on LRRK2 kinase according to the following procedures.
The protocol for basic TR-FRET LanthaScreen Tb Kinase Activity Assay inhibitor studies is as follows. LanthaScreen Kinase Activity Assays (ThermoFisher/USA) to evaluate inhibitors were performed by addition of 100 nL of test compound in the corresponding DMSO dilutions/5 L of kinase/fluorescein-ERM(LRRKtide) peptide mixture, Compound & kinase were pre-incubated for 15 minutes, then 5 μl of ATP into 384 well small volume plates. After incubation for 120 minutes at room temperature, the detection reagents containing Tb-anti-pLRRKtide antibody were added to monitor the phosphrylation level of peptide. Then, after 60 min minutes incubation at room temperature plates were read in Envision. Data analysis of emission ratios was according to the LanthaScreen Tb Kinase Activity Assay protocol.
Kinase and assay components were adjusted to final concentrations according to the kit protocol. For LRRK2: 2 nM wt human LRRK2, catalytic site, catalytic site (ThermoFisher/USA), 400 nM peptide, 38 μM ATP in 1× Kinase Buffer A.
Basic protocol for TR-FRET LanthaScreen Tb Kinase Activity Assay inhibitor studies involved two steps: Enzymatic step: Addition of 100 nl of test compound in corresponding DMSO dilutions, 5 μl of kinase/substrate mixture, 5 μl of ATP into 384 well small volume plates. Incubation for 120 minutes at room temperature.
Detection step: Addition of 10 μl EDTA & antibody, read plate after 60 minutes. Data analysis of emission ratios according to KinEASE assay protocol.
Kinase and assay components were adjusted to final concentrations according to the kit protocol.

[2] = Human hepatocyte stability, in vitro h-Hept CLpredict; assay type: in vitro ADME; conditions: cryopreserved hepatocytes, predicted hepatic clearance, cells without asterisk, read-out: hHep Cl
Procedure: The compounds disclosed herein were tested in vitro on human hepatocyte for in vitro h-Hept CLpredict according to the following procedures. • 1. Compound sock solutions were prepared by dissolving test compound and positive control in dimethyl sulfoxide (DMSO) at a concentration of 10 mM. Stock solutions were then diluted to 100 μM solutions by combining 198 μL of 50% acetonitrile/50% water with 2 μL of the 10 mM stock stock in separate conical tubes. • 2. Cryopreserved hepatocytes were prepared as follows: Incubation medium (William's E Medium supplemented with GlutaMAX) and hepatocyte thawing medium were placed in a 37° C. water bath and allowed to warm for at least 15 minutes prior to use. Cryopreserved hepatocytes were removed from storage, ensuring that vials remained at cryogenic temperatures until thawed. Cells were thawed by placing the vials in a 37° C. water bath and gently shaking the vials for 2 minutes. After thawing was completed, vials were sprayed with 70% ethanol and transferred to a biosafety cabinet. Hepatocytes were transferred into 50 mL conical tube containing thawing medium using wide-bore pipette tips. Tubes were placed into a centrifuge and spun at 100 g for 10 minutes. Then thawing medium was aspirated and hepatocytes were resuspended in enough incubation medium to yield−1.5×10^6 cells/mL. Cells were counted using acridine orange and propidium iodide (AO/PI) staining, and the viable cell density was determined. Cells were diluted with incubation medium to a working cell density of 0.5×10^6 viable cells/mL. • 3. To determine hepatocyte stability, 198 μL of hepatocytes were transferred into each well of a 96-well non-coated plate. Plates were placed in an incubator to allow the hepatocytes to warm for 10 minutes. • 4. The reaction was started by transferring 2 μL of the 100 μM test compound or positive control solution into respective wells of the 96-well non-coated plates. Plates were returned to the incubator until 25 μL aliquots of well contents were sampled at time points of 0, 15, 30, 60, 90 and 120 minutes. The aliquots were then mixed with 6 volumes (150 μL) of acetonitrile containing internal standard, IS (100 nM alprazolam, 200 nM caffeine and 100 nM tolbutamide) to terminate the reaction and vortexed for 5 minutes. After centrifuging the samples for 45 minutes at 3,220 g, aliquots of 100 μL of the supernatant were taken and diluted with 100 μL of ultra-pure water. The mixture was used for LC/MS/MS analysis. All incubations were performed in duplicate.
All calculations were carried out using Microsoft Excel. Peak area ratios (PAR) were determined from extracted ion chromatograms. The in vitro half-life (t1/2) of parent compound was determined by regression analysis of the percent parent disappearance vs. time curve as follows:
The in vitro half-life (in vitro t1/2) was determined from the slope value:
Conversion of the in vitro t1/2 (in minutes) into the in vitro intrinsic clearance (in vitro CLint, in μL/min/1×10^6 cells) was done using the following equation (mean of duplicate determinations): […]
The scaled-up intrinsic clearance (CLint, mL/min/kg), predicted hepatic clearance (CLH, mL/min/kg) and hepatic extraction ratio (ER) were calculated using the following equations:
CLint=(0.693/t1/2)*(1/(hepatocyte concentration (0.5*10^6 cells/mL))*scaling factors (Table (A)
• CLHept-predict=(QH*Scaled-up CLint*fub)/(QH+Scaled-up CLint*fub) • ER=CLH/QH • Where: • V=incubation volume (0.2 mL) • N=number of hepatocytes per well (0.1*10^6 cells) • QH=hepatic blood flow (mL/min/kg) (Table (A)
• fub=fraction of unbound drug in plasma, assumed to be 1 • Values used for calculation of the predicted hepatic clearance parameters data processing rules are outlined in the following tables (A) (B)

T1 sequence (Q5S007 1879-2138 limits assumed): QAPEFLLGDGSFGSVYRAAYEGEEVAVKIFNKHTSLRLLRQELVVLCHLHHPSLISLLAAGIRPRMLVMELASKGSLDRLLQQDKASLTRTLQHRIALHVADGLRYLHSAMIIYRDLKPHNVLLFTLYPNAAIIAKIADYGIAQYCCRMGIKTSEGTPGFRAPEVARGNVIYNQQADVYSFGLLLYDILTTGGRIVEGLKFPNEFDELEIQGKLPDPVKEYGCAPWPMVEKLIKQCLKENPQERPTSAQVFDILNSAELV

Row | SMILES | Caco-2 A2B (10^−6 cm/s) (Caco-2 cells) | Caco-2 B2A (10^−6 cm/s) (Caco-2 cells) | Caco-2 ER (Caco-2 cells) | IC50 [1] [nM] | CLhep predicted at 1 µM [2] [mL/min/kg]
1 | Cc1n[nH]c2c1N=C(c1c(F)cccc1F)Nc1cnc(N3CC(F)(F)C3)cc1-2 [Example 2, 13-(3,3-difluoroazetidin-1-yl)-8-(2,6-difluorophenyl)-5-methyl-3,4,7,9,12-pentazatricyclo[8.4.0.02,6]tetradeca-1(10),2(6),4,7,11,13-hexaene] | H (H (High permeability)”: A2B (B2A)>5) | H (H (High permeability)”: A2B (B2A)>5) | N (N (Non-substrate)”: ER<2.5) | < 2 | 6.3 to 14.7
2 | Cc1n[nH]c2c1N=C(c1c(F)cccc1F)Nc1cnc(N3CCC(F)CC3)cc1-2 [Example 3, 8-(2,6-difluorophenyl)-13-(4-fluoro-1-piperidyl)-5-methyl-3,4,7,9,12-pentazatricyclo[8.4.0.02,6]tetradeca-1(10),2(6),4,7,11,13-hexaene] | H (H (High permeability)”: A2B (B2A)>5) | H (H (High permeability)”: A2B (B2A)>5) | N (N (Non-substrate)”: ER<2.5) | < 2 | 6.3 to 14.7
3 | Cc1n[nH]c2c1N=C(c1c(F)cccc1F)Nc1ccc(-c3ccn(C(F)F)n3)cc1-2 [Example 14, 9-[1-(difluoromethyl)pyrazol-3-yl]-5-(2,6-difluorophenyl)-3-methyl-1,6-dihydropyrazolo[4,3-d][1,3]benzodiazepine] | H (H (High permeability)”: A2B (B2A)>5) | H (H (High permeability)”: A2B (B2A)>5) | N (N (Non-substrate)”: ER<2.5) | < 2 | > 14.7
4 | Cc1n[nH]c2c1N=C(c1c(F)cccc1F)Nc1cnc(-n3ccc(C(F)(F)F)n3)cc1-2 [Example 15, 8-(2,6-difluorophenyl)-5-methyl-13-[3-(trifluoromethyl)pyrazol-1-yl]-3,4,7,9,12-pentazatricyclo[8.4.0.02,6]tetradeca-1(10),2(6),4,7,11,13-hexaene] | M (M (Moderate permeability)”: 1≤A2B (B2A)≤5) | M (M (Moderate permeability)”: 1≤A2B (B2A)≤5) | N (N (Non-substrate)”: ER<2.5) | < 2 | 6.3 to 14.7
5 | Cc1n[nH]c2c1N=C(c1c(F)cccc1F)Nc1cnc(NCc3ccc(F)cc3F)cc1-2 [Example 16, N-(2,4-difluorobenzyl)-5-(2,6-difluorophenyl)-3-methyl-1,6-dihydropyrazolo[4,3-d]pyrido[4,3-f][1,3]diazepin-9-amine] | H (H (High permeability)”: A2B (B2A)>5) | H (H (High permeability)”: A2B (B2A)>5) | N (N (Non-substrate)”: ER<2.5) | < 2 | 6.3 to 14.7
6 | Cc1n[nH]c2c1N=C(c1c(F)cccc1F)Nc1ccc(N3C[C@H](C)O[C@@H](C)C3)cc1-2 [Example 24, (2S,6S)-4-(5-(2,6-difluorophenyl)-3-methyl-1,6-dihydrobenzo[d]pyrazolo[3,4-f][1,3]diazepin-9-yl)-2,6-dimethylmorpholine] | H (H (High permeability)”: A2B (B2A)>5) | H (H (High permeability)”: A2B (B2A)>5) | N (N (Non-substrate)”: ER<2.5) | < 2 | 6.3 to 14.7
7 | CCc1n[nH]c2c1N=C(c1c(F)cccc1F)Nc1cnc(N3CCO[C@@H](C)C3)cc1-2 [Example 35, (S)-4-(5-(2,6-difluorophenyl)-3-ethyl-1,6-dihydropyrazolo[4,3-d]pyrido[4,3-f][1,3]diazepin-9-yl)-2-methylmorpholine] | H (H (High permeability)”: A2B (B2A)>5) | H (H (High permeability)”: A2B (B2A)>5) | N (N (Non-substrate)”: ER<2.5) | < 2 | < 6.3
8 | Cc1n[nH]c2c1N=C(c1c(F)cccc1F)Nc1c-2cc(N2C[C@H](C)O[C@@H](C)C2)nc1C [Example 39, (2S,6S)-4-[8-(2,6-difluorophenyl)-5,11-dimethyl-3,4,7,9,12-pentazatricyclo[8.4.0.02,6]tetradeca-1(10),2(6),4,7,11,13-hexaen-13-yl]-2,6-dimethyl-morpholine] | H (H (High permeability)”: A2B (B2A)>5) | H (H (High permeability)”: A2B (B2A)>5) | N (N (Non-substrate)”: ER<2.5) | < 2 | 6.3 to 14.7
